# From patent publication US11634466B2, “Musclin peptides and methods of use thereof” (UNIVERSITY OF IOWA RESEARCH FOUNDATION, priority 2016, dated 2023)
# Assays:
# [1] = Plasma musclin level by custom ELISA after osmotic pump infusion of musclin; format: in vivo; details: WT mice, musclin 1 ng/g/h i.p. by osmotic pump for 7 d
# Protocol: Whole body composition was obtained by time-domain nuclear magnetic resonance under isoflurane anesthesia (Bruker Minispec; Billerica, Mass.). Osmotic pumps: Osmotic pumps (model 1004, 100 μl volume, 0.11 μl/hr release rate, 28 days duration, Alzet Durect, Cupertino, Calif.), loaded with saline vs. 50 μg of mouse musclin peptide (SFSGFGSPLDRLSAG SVEHRGKQRKAVDHSKKR (SEQ ID NO: 4), corresponding to amino acids 80-112, Gen Bank ID: AAS87598.1, synthesized by Biosynthesis, Lewisville, Tex.) were surgically implanted within the peritoneal cavity of mice under sterile conditions and general anesthesia. Mice recovered for 7 days before exercise testing was performed.
# Terminal blood collection was performed by direct cardiac puncture.
# 96-well ELISA Maxisorp plates (Nunc) were coated with custom rabbit anti-musclin IgG (Anaspec) at 1 μg/well in BupH carbonate-bicarbonate buffer, pH 9.4 (Thermo Scientific) at 4° C. overnight. On the next day plates were washed with TBS/0.05% Tween 20 and blocked with 5% BSA/TBS for 1 hr at room temperature. Synthetic musclin peptide was used as a standard (NH2-sfsgfgspldrlsagsvehrgkqrkavdhskkr-COOH (SEQ ID NO: 28), corresponding to amino acids 80-112, Gen Bank ID: AAS87598.1, synthesized by Biosynthesis, Lewisville, Tex.). […] Fluorescence was detected at 325/420 nm.
# NPRA = molecular target: T1, NPRA (Homo sapiens, UniProt P16066); details: background statement; without activating the linked guanylyl cyclase; cited from earlier work
# T1 sequence (P16066 33-1061): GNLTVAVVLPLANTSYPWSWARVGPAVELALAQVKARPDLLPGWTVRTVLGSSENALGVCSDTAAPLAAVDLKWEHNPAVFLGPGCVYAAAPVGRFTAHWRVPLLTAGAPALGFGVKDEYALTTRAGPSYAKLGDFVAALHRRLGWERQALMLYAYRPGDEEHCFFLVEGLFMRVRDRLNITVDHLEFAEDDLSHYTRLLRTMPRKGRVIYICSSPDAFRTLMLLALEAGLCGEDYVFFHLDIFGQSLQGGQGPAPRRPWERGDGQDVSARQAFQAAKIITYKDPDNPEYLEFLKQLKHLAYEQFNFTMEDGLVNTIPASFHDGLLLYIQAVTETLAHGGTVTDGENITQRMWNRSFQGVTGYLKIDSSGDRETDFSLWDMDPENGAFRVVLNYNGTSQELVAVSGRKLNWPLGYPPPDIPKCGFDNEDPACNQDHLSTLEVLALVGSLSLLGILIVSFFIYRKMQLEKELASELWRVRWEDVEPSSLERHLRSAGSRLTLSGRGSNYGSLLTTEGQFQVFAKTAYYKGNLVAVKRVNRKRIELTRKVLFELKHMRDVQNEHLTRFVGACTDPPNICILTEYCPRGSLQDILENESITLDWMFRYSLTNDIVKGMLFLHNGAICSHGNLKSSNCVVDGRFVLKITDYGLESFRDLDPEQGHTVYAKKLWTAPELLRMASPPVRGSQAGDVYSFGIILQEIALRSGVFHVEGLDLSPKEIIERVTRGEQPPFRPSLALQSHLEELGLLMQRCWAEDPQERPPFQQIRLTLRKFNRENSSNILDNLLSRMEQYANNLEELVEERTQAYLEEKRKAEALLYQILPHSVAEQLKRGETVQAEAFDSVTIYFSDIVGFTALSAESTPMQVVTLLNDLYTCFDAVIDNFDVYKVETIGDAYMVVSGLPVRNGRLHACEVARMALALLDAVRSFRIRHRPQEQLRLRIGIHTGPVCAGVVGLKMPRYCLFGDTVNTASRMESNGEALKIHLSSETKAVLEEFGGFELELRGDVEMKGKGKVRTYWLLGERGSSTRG
substance,measurement,setting,value
H-SFSGFGSPLDRLSAGSVEHRGKQRKAVDHSKKR-OH [musclin],plasma level induced by musclin infusion,[1],comparable with that observed after exercise training
same,binding to NPRA,NPRA,weak binding
